{"source": "patent US8569573B2", "about": "(priority 2007, dated 2013)", "key": {"[1]": {"test_system": "human drug metabolism genes", "experiment": "Induction of mRNAs involved in drug metabolism in cultured hepatocytes from chimeric mice (real-time PCR)", "description": "(§1) The basal expression and induction of human liver specific genes in chimeric mice was examined. […] Primers, obtained from Applied Biosystems, were specific for human CYP1A1 (Hs00153120_m1), CYP1A2 (Hs00167927_m1), CYP3A4 (Hs00430021_m1), CYP3A7 (Hs00426361_a1), CYP2B6 (Hs00167937_g1), CYP2D6 (Hs00164385_a1), Multidrug resistance associated protein MRP2 (Hs00166123_m1), Bile Salt export Pump BSEP, (Hs00184829_m1), CAR (Hs00231959_m1) Albumin (Hs00609411_m1), HNF4α (Hs00230853_m1), Cyclophillin (Hs99999904_m1) and mouse actin (Ma00607939_s1).\n(§2) Cultures of isolated hepatocytes were established and exposed to prototypical inducers of the cytochrome P450 genes. […] In addition to the mRNA expression levels of human drug metabolism genes, the enzymatic activity of the human CYP1A and 3A family members were measured. Ethoxyresorufin-O-deethylase activity (EROD) is known to be mediated by CYP1A1 and 1A2 in human liver."}, "[2]": {"test_system": "CYP3A4", "experiment": "Conversion of testosterone to 6-beta-hydroxyltestosterone in cultured hepatocytes from humanized FRG mouse liver", "details": "cultured hepatocytes from repopulated FRG livers, FIG. 6b", "description": "as §1, §2"}, "[3]": {"test_system": "FRG mice", "experiment": "Maintenance of FRG mice with NTBC in drinking water and NTBC withdrawal", "assay_type": "in vivo, mouse", "description": "Several strains of immune-deficient Fah knockout mice were generated. Crossing the Fah mutation onto nude, nod/scid or Rag1^−/− backgrounds was unsuccessful. To generate an immunodeficient Fah^−/− mouse strain completely lacking T cells, B cells and NK cells, but without a DNA repair defect, Fah^−/−/Rag2^−/−/Il2rg^−/− (FRG) mice were generated. Male Fah^−/−129S4 mice (Grompe et al. Genes Dev. 7:2298-2307, 1993) were crossed with female Rag2^−/−/Il2rg^−/− mice (Taconic). All animals were maintained with drinking water containing 2-(2-nitro-4-trifluoro-methyl-benzoyl)-1,3 cyclohexanedione (NTBC) at a concentration of 1.6 mg/L (Grompe et al. Nat. Genet. 10:453-460, 1995). To confirm the genotypes of each animal, PCR-based genotyping was carried out on 200 ng genomic DNA isolated from toe tissue (Grompe et al. Genes Dev. 7:2298-2307, 1993; Traggiai et al. Science 304:104-107, 2004)."}, "[4]": {"test_system": "CYP1A1 and 1A2", "experiment": "Ethoxyresorufin-O-deethylase (EROD) activity on cultured hepatocytes from humanized FRG mouse liver", "assay_type": "cell-based, human", "details": "humanized mouse liver cells, FIG. 6a"}}, "data": [{"compound": "CCC1(c2ccccc2)C(=O)NC(=O)NC1=O", "note": "[PB, phenobarbital]", "values": [{"measurement": "induction of CYP3A4 mRNA", "setting": "[1]; relative to non-induced cultures, FIG. 7b", "value": "even more striking than at the enzyme level"}, {"measurement": "conversion of testosterone to 6-beta-hydroxyltestosterone after prior exposure to inducer", "setting": "[2]", "value": "specifically induced"}]}, {"compound": "O=C1CCCC(=O)C1C(=O)c1ccc(C(F)(F)F)cc1[N+](=O)[O-]", "note": "[NTBC, 2-(2-nitro-4-trifluoro-methyl-benzoyl)-1,3 cyclohexanedione]", "values": [{"measurement": "time to death after NTBC withdrawal", "setting": "[3]; FRG mice, gradual hepatocellular injury after withdrawal", "value": "4-8 weeks"}, {"measurement": "growth and fertility of FRG mice", "setting": "[3]; NTBC continuously in drinking water, 1.6 mg/L", "value": "grew well and were fully fertile"}]}, {"compound": "O=c1cc(-c2ccccc2)oc2ccc3ccccc3c12", "note": "[BNF, beta-naphthoflavone]", "values": [{"measurement": "pattern of genes induced", "setting": "[1]; cultured hepatocytes from chimeric mice, FIG. 7", "value": "as expected from normal human cells"}, {"measurement": "EROD activity after prior exposure to inducer", "setting": "[4]", "value": "specifically and robustly induced"}]}]}
